In US4091006A, “Esters of 3-hydroxyindone compounds” (priority 1975, dated 1978):

Each molecule was assayed on adults and nymphal stages of the two-spotted mite (assay: Mite Foliage Spray Test). Settings: 4 days.
Type: in vivo, Tetranychus urticae (Koch)
Description: (§1) The test procedures were as follows:
(§2) Compositions were rated on the basis of percent kill with a rating of 1 indicating no mortality; 3 signifying an approximately 50% mortality and 5 indicating 100% mortality at the indicated dosage.

Structure (SMILES)	Mite Adult rating
Cc1cc(C)c(C2=C(OC(=O)CCCCl)c3ccccc3C2=O)c(C)c1 [2-(2',4',6'-Trimethylphenyl)-3-(4-chlorobutyryloxy)indone]	5 (100% mortality)
CC(C)(C)C(=O)OC1=C(c2c(Cl)cccc2Cl)C(=O)c2ccccc21 [2-(2',6'-Dichlorophenyl)-3-(pivaloyloxy)indone]	5 (100% mortality)
COC(=O)CCC(=O)OC1=C(c2c(C)cc(C)cc2C)C(=O)c2ccccc21 [2-(2',4',6'-Trimethylphenyl)-3-(3-methoxycarbonylpropionyloxy)indone]	5 (100% mortality)
O=C(OC1=C(c2c(Cl)cccc2Cl)C(=O)c2ccccc21)c1cccc(Cl)c1 [3-(3-Chlorobenzoyloxy)-2-(2',6'-dichlorophenyl)indone]	5 (100% mortality)

These molecules were tested on Bean (assay: Phytotoxicity, bean). Settings: 2500 ppm, 10 days.
Description: (§4) Experiments were also conducted to determine the phytotoxicity of representative enol ester compositions with respect to healthy fresh plants. […] The test plants were sprayed in accordance with the procedure described above for the Mite Foliage Spray Test so as to deliver approximately 100 milliliters of test solution to the leaves of each plant tested. The sprayed plants and controls were set aside for approximately 1 hour to allow the solutions to dry and were then placed in the greenhouse. After 10 days the plants were visually inspected to determine the extent of foliage injury. A rating of 1 indicates no perceptible injury; 5 indicates the plant was dead and ratings of 2, 3 and 4 indicate intermediate degrees of injury based upon the number and extent to which leaves were injured.

Structure (SMILES)	Phytotoxicity Rating, Bean
Cc1cc(C)c(C2=C(OC(=O)CCCCl)c3ccccc3C2=O)c(C)c1 [2-(2',4',6'-Trimethylphenyl)-3-(4-chlorobutyryloxy)indone]	1
COC(=O)CCC(=O)OC1=C(c2c(C)cc(C)cc2C)C(=O)c2ccccc21 [2-(2',4',6'-Trimethylphenyl)-3-(3-methoxycarbonylpropionyloxy)indone]	1

Each molecule was assayed on eggs of the two-spotted mite (assay: Fumigant toxicity, Method 1 (deposit in pie plate)). Settings: deposit approx. 160 μg per square cm, 4 days.
Type: in vivo
Description: (§3) Two methods were used to evaluate fumigant properties:
Method 1: Fifty mg. of each compound were dissolved in 5 ml. of acetone and poured into a 20 cm. (bottom diameter) Pyrex No. 210 pie plate. The acetone was allowed to evaporate leaving a deposit of approximately 160 μg. per square cm. The plate was then placed in the bottom of a 50 pound metal lard container (about 30 cm. in diameter and 34 cm. high). Two excised bean plants, held in a 250 ml. Erlenmeyer flask containing 100 ml. of tap water and infested with eggs of the two-spotted mite, were placed in the center of the pie plate. The container was held in the insectary (temperature 80±5° F., 50±5% R. H.) for four days before mortality determinations were made.

Structure (SMILES)	Fumigant Toxicity Method 1
Cc1cc(C)c(C2=C(OC(=O)CCCCl)c3ccccc3C2=O)c(C)c1 [2-(2',4',6'-Trimethylphenyl)-3-(4-chlorobutyryloxy)indone]	1
COC(=O)CCC(=O)OC1=C(c2c(C)cc(C)cc2C)C(=O)c2ccccc21 [2-(2',4',6'-Trimethylphenyl)-3-(3-methoxycarbonylpropionyloxy)indone]	1

The molecules below were run on Corn (assay: Phytotoxicity, corn). Settings: 2500 ppm, 10 days.

Structure (SMILES)	Phytotoxicity Rating, Corn
Cc1cc(C)c(C2=C(OC(=O)CCCCl)c3ccccc3C2=O)c(C)c1 [2-(2',4',6'-Trimethylphenyl)-3-(4-chlorobutyryloxy)indone]	2
COC(=O)CCC(=O)OC1=C(c2c(C)cc(C)cc2C)C(=O)c2ccccc21 [2-(2',4',6'-Trimethylphenyl)-3-(3-methoxycarbonylpropionyloxy)indone]	1

Each molecule was assayed on egg of the two-spotted mite (assay: Mite Ovicide Test). Settings: spray on eggs, 4 days.
Type: in vivo, Tetranychus urticae (Koch)
Description: as §1
The plants were allowed to dry thoroughly.
as §2

Structure (SMILES)	Mite Ova rating
Cc1cc(C)c(C2=C(OC(=O)CCCCl)c3ccccc3C2=O)c(C)c1 [2-(2',4',6'-Trimethylphenyl)-3-(4-chlorobutyryloxy)indone]	5 (100% mortality)
CC(C)(C)C(=O)OC1=C(c2c(Cl)cccc2Cl)C(=O)c2ccccc21 [2-(2',6'-Dichlorophenyl)-3-(pivaloyloxy)indone]	5 (100% mortality)
COC(=O)CCC(=O)OC1=C(c2c(C)cc(C)cc2C)C(=O)c2ccccc21 [2-(2',4',6'-Trimethylphenyl)-3-(3-methoxycarbonylpropionyloxy)indone]	5 (100% mortality)
O=C(OC1=C(c2c(Cl)cccc2Cl)C(=O)c2ccccc21)c1cccc(Cl)c1 [3-(3-Chlorobenzoyloxy)-2-(2',6'-dichlorophenyl)indone]	5 (100% mortality)

These molecules were tested on egg forms of the two-spotted mite (assay: Fumigant toxicity, Method 2 (treated plants near untreated infested plants)). Settings: 500 ppm dip, 4 days.
Type: in vivo
Description: as §3
Method 2: Excised bean plants infested with egg forms of the two-spotted mite were dipped in an aqueous preparation (500 ppm) of the test compound. The treated plants were transferred to 250 ml. Erlenmeyer flasks containing 100 ml. of tap water. Four flasks holding treated plants were evenly spaced around a similar flask in which were placed untreated mite-infested plants so that the leaves of the treated foliage were in close proximity (1-3 inches) to the untreated plants. Four days later mortality determinations were made.

Structure (SMILES)	Fumigant Toxicity Method 2
Cc1cc(C)c(C2=C(OC(=O)CCCCl)c3ccccc3C2=O)c(C)c1 [2-(2',4',6'-Trimethylphenyl)-3-(4-chlorobutyryloxy)indone]	1
CC(C)(C)C(=O)OC1=C(c2c(Cl)cccc2Cl)C(=O)c2ccccc21 [2-(2',6'-Dichlorophenyl)-3-(pivaloyloxy)indone]	3
COC(=O)CCC(=O)OC1=C(c2c(C)cc(C)cc2C)C(=O)c2ccccc21 [2-(2',4',6'-Trimethylphenyl)-3-(3-methoxycarbonylpropionyloxy)indone]	1

The molecules below were run on Perennial rye grass, crabgrass, red root pigweed, mustard (assay: Preliminary Herbicide Seed Germination Test). Settings: rating/maximum 15: 100 ppm only, crabgrass omitted, each rated 1 (no injury) to 5 (no seedlings emerged).

Structure (SMILES)	Herbicide (total preemergence rating)
Cc1cc(C)c(C2=C(OC(=O)CCCCl)c3ccccc3C2=O)c(C)c1 [2-(2',4',6'-Trimethylphenyl)-3-(4-chlorobutyryloxy)indone]	14/15
COC(=O)CCC(=O)OC1=C(c2c(C)cc(C)cc2C)C(=O)c2ccccc21 [2-(2',4',6'-Trimethylphenyl)-3-(3-methoxycarbonylpropionyloxy)indone]	15/15

Same assay, conditions: rating/maximum 40: 100 and 1000 ppm, four species, each rated 1 (no injury) to 5 (no seedlings emerged), 10-12 days

Structure (SMILES)	Herbicide (total preemergence rating)
CC(C)(C)C(=O)OC1=C(c2c(Cl)cccc2Cl)C(=O)c2ccccc21 [2-(2',6'-Dichlorophenyl)-3-(pivaloyloxy)indone]	30/40
O=C(OC1=C(c2c(Cl)cccc2Cl)C(=O)c2ccccc21)c1cccc(Cl)c1 [3-(3-Chlorobenzoyloxy)-2-(2',6'-dichlorophenyl)indone]	32/40

The molecules below were run on two-spotted mite (assay: Small scale field tests, mite control on Tendergreen bean plants). Settings: Test I, 500 ppm, 4 days; scale 1 (no control) to 5 (complete control).
Type: in vivo, Tetranychus urticae (Koch)
Description: Selected enol ester compositions were evaluated in small scale field tests to determine whether the excellent miticidal properties observed in greenhouse testing would be obtained under actual conditions of field use.
In Test I 500 ppm aqueous dispersions were prepared as described above. In tests II and III various dilutions of the test compounds ranging from 125 ppm to 1000 ppm were prepared and used. In each case the test dispersions were applied to a minimum of two replicate test plots measuring five feet in length and containing healthy young Tendergreen bean plants which had previously been infested with two-spotted mite (Tetranychus urticae (Koch)). Dispersions of the test compounds at each concentration level were applied to individual replicate plots using 1/2 gallon garden sprayers equipped with spray nozzles to apply approximately 250 ml. of test solution to each replicate. The effectiveness of the treatment was determined at intervals following application, by microscopic examination of five leaves selected at random from each replicate plot. The degree of effectiveness for each leaf was rated on a scale of from 1 to 5 with 1 indicating no control in reference to a standard sprayed with a mixture of solution less test compound and 5 indicating complete control. The results obtained from inspection of sample leaves were then averaged to give a numerical indication of the degree of control for each compound tested at the concentration applied.

Structure (SMILES)	Average mite control rating, 1st Reading
CC(C)(C)C(=O)OC1=C(c2c(Cl)cccc2Cl)C(=O)c2ccccc21 [2-(2',6'-Dichlorophenyl)-3-(pivaloyloxy)indone]	3.5
O=C(OC1=C(c2c(Cl)cccc2Cl)C(=O)c2ccccc21)c1cccc(Cl)c1 [3-(3-Chlorobenzoyloxy)-2-(2',6'-dichlorophenyl)indone]	3.0

Same assay, conditions: Test I, 500 ppm, 8 days; scale 1 to 5

Structure (SMILES)	Average mite control rating, 2nd Reading
CC(C)(C)C(=O)OC1=C(c2c(Cl)cccc2Cl)C(=O)c2ccccc21 [2-(2',6'-Dichlorophenyl)-3-(pivaloyloxy)indone]	4.0
O=C(OC1=C(c2c(Cl)cccc2Cl)C(=O)c2ccccc21)c1cccc(Cl)c1 [3-(3-Chlorobenzoyloxy)-2-(2',6'-dichlorophenyl)indone]	3.0

Same assay, conditions: Test II, 250 ppm, 3 days; scale 1 to 5

Structure (SMILES)	Average mite control rating, 1st Reading
CC(C)(C)C(=O)OC1=C(c2c(Cl)cccc2Cl)C(=O)c2ccccc21 [2-(2',6'-Dichlorophenyl)-3-(pivaloyloxy)indone]	2.3

Same assay, conditions: Test II, 250 ppm, 7 days; scale 1 to 5

Structure (SMILES)	Average mite control rating, 2nd Reading
CC(C)(C)C(=O)OC1=C(c2c(Cl)cccc2Cl)C(=O)c2ccccc21 [2-(2',6'-Dichlorophenyl)-3-(pivaloyloxy)indone]	3.7

Same assay, conditions: Test II, 500 ppm, 3 days; scale 1 to 5

Structure (SMILES)	Average mite control rating, 1st Reading
CC(C)(C)C(=O)OC1=C(c2c(Cl)cccc2Cl)C(=O)c2ccccc21 [2-(2',6'-Dichlorophenyl)-3-(pivaloyloxy)indone]	3.0

Same assay, conditions: Test II, 500 ppm, 7 days; scale 1 to 5

Structure (SMILES)	Average mite control rating, 2nd Reading
CC(C)(C)C(=O)OC1=C(c2c(Cl)cccc2Cl)C(=O)c2ccccc21 [2-(2',6'-Dichlorophenyl)-3-(pivaloyloxy)indone]	3.3

Same assay, conditions: Test II, 1000 ppm, 3 days; scale 1 to 5

Structure (SMILES)	Average mite control rating, 1st Reading
CC(C)(C)C(=O)OC1=C(c2c(Cl)cccc2Cl)C(=O)c2ccccc21 [2-(2',6'-Dichlorophenyl)-3-(pivaloyloxy)indone]	3.3

Same assay, conditions: Test II, 1000 ppm, 7 days; scale 1 to 5

Structure (SMILES)	Average mite control rating, 2nd Reading
CC(C)(C)C(=O)OC1=C(c2c(Cl)cccc2Cl)C(=O)c2ccccc21 [2-(2',6'-Dichlorophenyl)-3-(pivaloyloxy)indone]	4.7

The molecules below were run on Tomato (assay: Phytotoxicity, tomato). Settings: 2500 ppm, 10 days.
Description: as §4

Structure (SMILES)	Phytotoxicity Rating, Tomato
Cc1cc(C)c(C2=C(OC(=O)CCCCl)c3ccccc3C2=O)c(C)c1 [2-(2',4',6'-Trimethylphenyl)-3-(4-chlorobutyryloxy)indone]	2
COC(=O)CCC(=O)OC1=C(c2c(C)cc(C)cc2C)C(=O)c2ccccc21 [2-(2',4',6'-Trimethylphenyl)-3-(3-methoxycarbonylpropionyloxy)indone]	1

Each molecule was assayed on Cotton (assay: Phytotoxicity, cotton). Settings: 2500 ppm, 10 days.
Description: as §4

Structure (SMILES)	Phytotoxicity Rating, Cotton
Cc1cc(C)c(C2=C(OC(=O)CCCCl)c3ccccc3C2=O)c(C)c1 [2-(2',4',6'-Trimethylphenyl)-3-(4-chlorobutyryloxy)indone]	2
COC(=O)CCC(=O)OC1=C(c2c(C)cc(C)cc2C)C(=O)c2ccccc21 [2-(2',4',6'-Trimethylphenyl)-3-(3-methoxycarbonylpropionyloxy)indone]	1
